Key:
PRMT1 = PRMT1 (Homo sapiens, UniProt Q99873); experiment: PRMT1 enzyme activity test; assay type: biochemical; conditions: 0.5 nM PRMT1, 3H-SAM, peptide
Procedure: PRMT1 enzyme activity test were performed in a buffer prepared on the same day 5 consisting of 10 mMTirs-HCl (pH=8.0), 0.01% Tween-20 and 1 mM DTT. The compounds were prepared to the highest inhibitor concentration ultimately required in the 100× reaction with 100% DMSO and then transferred to one well of a 384-well Echo plate (Echo-eligible 384-well polypropylene microplates 2.0, transparent, flat-bottomed) and sequentially diluted in the next well with a 3-fold dilution of 100% DMSO, and so on, with a total of 10 concentrations based on Precision. 100% DMSO was added to two empty wells to serve as control well without compound and control well without enzyme in the same 384-well Echo plate. 250 nL of compound was transferred from each well of the 384-well Echo plate to a 384-well assay plate (384-well polypropylene storage microplate) via the Echo 550 liquid processor. For wells with compounds and control well without compound, a mixture (15 uL) containing PRMT1 enzyme was added to the 384-well assay plate. For control wells without enzyme, the mixture containing the assay buffer (15 uL) was added instead. The compounds were allowed to incubate with PRMT1 for 15 minutes at room temperature, and then a mixture containing ^3H-SAM and peptide (10 uL) was added to start the reaction (final volume=25 uL). The final concentrations of the components were as follows: 0.5 nM for PRMT1, 0.25 uM for ^3H-SAM, 0.1 uM for the peptide, and 1% DMSO. After 120 min of incubation, the assay was terminated by the addition of non-radiolabeled SAM (5 uL) to a final concentration of 125 uM, which diluted 3H-SAM to a level at which its incorporation into the peptide substrate was no longer detected. 25 μL of the reaction solution from the 384-well assay plate was then transferred to a 384-well detection plate (Streptavidin FlashPlate HTS PLUS, high volume, 384 wells). The biotinylated peptide was allowed to bind to the surface of the antibiotic protein streptavidin for at least 60 minutes at room temperature. The Flashplate was then washed three times with 0.1% Tween-20 in a BioTek plate washer. Plates were read on a microplate counter (MicroBeta2) to measure the amount of ^3H-labeled peptide bound to the surface of the detection plate, measured in counts per minute (cpm).
The raw data were copied from the Reader and the inhibition values were calculated in Excel by Equation (1), Equation (1): Inh %=(CPMmax−CPMcmpd)/(CPMmax−CPMmin)*100, wherein the Max signal was obtained from the enzyme-substrate interaction and the Min signal was obtained from the substrate. IC50 values were obtained by fitting the data through equation (2) using XLFit add-in for Excel version […]. Equation (2): Y=Bottom+(Top-Bottom)/(1+((IC50/X)[…])), wherein, Y represents inhibition percentage and X represents compound concentration.

Toledo cells = experiment: Toledo cell proliferation inhibition assay; assay type: cell-based; conditions: Homo sapiens, Toledo, 144 h; six-day assay, CellTiter-Glo
Procedure: • A. Purpose: to determine the effects of compounds on Toledo cells through a six-day cell proliferation assay. • B. Reagents and materials: • 1. Cell culture medium: RPMI 1640+10% FBS • 2. 384-well cell culture plate (Corning, item #3764) • 3. 0.4% Taipan Blue Staining Solution (Thermo Fisher, item #T10282) • 4. cell counting plate (Thermo Fisher, item #C10228) • 5. 50 ml reagent reservoir (Corning, item #4870) • 6. 50 ml conical sterile polypropylene centrifuge tube (Thermo Fisher, item #339653) • 7. Automatic cell counter (Thermo Fisher, item #AMQAX1000) • 8. CellTiter-Glo Luminescent Cell Viability Detection Reagent (Promega, item #G7572) • 9. SpectraMax i3x Multi-Mode Enzyme Labeling Instrument (Megaman Molecular Instruments, item #5024062) • C. Experimental method • 1. Resuspending the cells with a pipette. • 2. 0.4% Taipan blue staining solution and Toledo cells were mixed in equal proportion, and the cells were counted using an automatic cell counter. • 3. Toledo cells were diluted to a final concentration of 2000 cells per well and transferred to a 50 ml reagent reservoir. • 4. Diluted Toledo cells were added to a 384-well cell culture plate, 40 ul per well. • 5. The cells were shortly centrifuged and settled. • 6. The cells were incubated in a 37° C., 5% CO2 cell culture incubator. • 7. The substrate in the CellTiter-Glo Luminescent Cell Viability Detection Reagent was mixed with the solution. • 8. After six days, the 384-well cell culture plate was taken from the incubator and 20 ul of configured CellTiter-Glo reagent was added to each well. • 9. 384-well cell culture platewasmixed in an orbital shaker for 30 minutes. • 10. Signal of luminescence was detected with a SpectraMax i3x multi-mode enzyme labeling instrument.

Chain of PRMT1 (Q99873 whole entry): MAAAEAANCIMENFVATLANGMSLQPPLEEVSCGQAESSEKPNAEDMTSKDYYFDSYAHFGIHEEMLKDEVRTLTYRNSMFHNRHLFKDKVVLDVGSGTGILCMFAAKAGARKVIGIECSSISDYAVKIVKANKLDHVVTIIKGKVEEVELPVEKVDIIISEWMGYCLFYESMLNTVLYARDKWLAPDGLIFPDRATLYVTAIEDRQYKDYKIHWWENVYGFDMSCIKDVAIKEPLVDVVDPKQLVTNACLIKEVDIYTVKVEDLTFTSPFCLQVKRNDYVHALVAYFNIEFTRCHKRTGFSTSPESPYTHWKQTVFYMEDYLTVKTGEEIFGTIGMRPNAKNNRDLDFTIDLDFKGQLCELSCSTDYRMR

Compound	IC50 (PRMT1)	IC50 (Toledo cells)
CNCCN(C)Cc1ccc(C)nc1C1CCN(c2cc(C)cc(Cl)c2)CC1 [P058]	< 0.05 µM	< 1 µM
CNCCN(C)Cc1nc(C)ccc1C1CCN(CCc2ccccc2)CC1 [P059]	< 0.05 µM	1 to 5 µM
CNCCN(C)Cc1ccccc1C1=CCC(OC(C)C)CC1 (centres unmarked) [P060]	< 0.05 µM	< 1 µM
CNCCN(C)Cc1ccc(C)nc1C1CCN(c2cccc(C(F)F)c2)CC1 [P061]	< 0.05 µM	< 1 µM
CNCCN(C)Cc1ccc(C)nc1C1CCN(c2cc(C)cc(C)c2)CC1 [P063]	< 0.05 µM	< 1 µM
CNCCN(C)Cc1ccc(C)nc1C1CCN(c2ccc(F)c(Cl)c2)CC1 [P064]	< 0.05 µM	< 1 µM
CNCCN(C)Cc1ccc(C)nc1C1CCN(c2ccc(F)c(C)c2)CC1 [P065]	< 0.05 µM	< 1 µM
CNCCN(C)Cc1ccc(C)nc1C1CCN(c2cc(C)cc(F)c2)CC1 [P066]	< 0.05 µM	< 1 µM
CNCCN(C)Cc1ccc(C)nc1C1CCN(c2cc(C)ccc2F)CC1 [P067]	< 0.05 µM	< 1 µM
CNCCN(C)Cc1ncccc1C1CCN(c2cccc(C(F)(F)F)c2)CC1 [P068]	< 0.05 µM	1 to 5 µM
CNCCN(C)Cc1ccc(C(C)N)cc1C1CCc2cc(F)c(F)cc2CC1 (centres unmarked) [P070]	< 0.05 µM	< 1 µM
CNCCN(C)Cc1ncccc1C1CCN(c2cccc(CN3CCCC3)c2)CC1 [P071]	< 0.05 µM	1 to 5 µM
CNCCN(C)Cc1ccc(Cl)nc1C1CCN(c2cccc(C)c2)CC1 [P072]	< 0.05 µM	< 1 µM
CNCCN(C)Cc1ccc(C)nc1C1CCN(c2cccc(Cl)c2)CC1 [P073]	< 0.05 µM	< 1 µM
CNCCN(C)Cc1ccc(F)cc1C1CCN(c2cccc(C(C)(C)O)c2)CC1 [P076]	< 0.05 µM	1 to 5 µM
CNCCN(C)Cc1ncccc1C1CCN(Cc2cccc(C)c2)CC1 [P077]	< 0.05 µM	1 to 5 µM
CNCCN(C)Cc1ncccc1C1CCN(c2cc(C)cc(CN(C)C)c2)CC1 [P082]	< 0.05 µM	1 to 5 µM
CNCCN(C)Cc1ccc(C)nc1C1CCN(c2ccc(F)cc2)CC1 [P086]	< 0.05 µM	1 to 5 µM
CNCCN(C)Cc1ccc(F)cc1C1CCN(C(=O)Cc2ccccc2)CC1 [P087]	< 0.05 µM	1 to 5 µM
CNCCN(C)Cc1ncccc1C1CCN(Cc2ccccc2)CC1 [P090]	< 0.05 µM	< 1 µM
CNCCN(C)Cc1ncccc1C1CCN(c2cccc(CN(C)C)c2)CC1 [P092]	< 0.05 µM	< 1 µM
CNCCN(C)Cc1nc(C)ccc1N1CCc2cc(F)c(F)cc2CC1 [P093]	< 0.05 µM	< 1 µM
CNCCN(C)Cc1ncccc1C1CCN(c2ccc(C)cc2)CC1 [P096]	< 0.05 µM	1 to 5 µM
CNCCN(C)Cc1ccncc1C1CCN(c2cccc(C)c2)CC1 [P097]	< 0.05 µM	1 to 5 µM
CNCCN(C)Cc1ccc(N(C)C)nc1C1CCN(c2cccc(C)c2)CC1 [P098]	< 0.05 µM	< 1 µM
CNCCN(C)Cc1ccc(C)nc1C1CCN(c2cccc(N(C)C)c2)CC1 [P099]	< 0.05 µM	1 to 5 µM
CNCCN(C)Cc1cc(C(=O)N(C)C)ccc1C1CCN(c2cccc(C)c2)CC1 [P100]	≥ 0.5 µM	≥ 5 µM
CNCCN(C)Cc1ccc(C(=O)N(C)C)cc1C1CCN(c2cccc(C)c2)CC1 [P101]	0.05 to 0.5 µM	1 to 5 µM

Compound	IC50 (PRMT1)	IC50 (Toledo cells)
CNCCN(C)Cc1ncccc1C1CCN(c2cccc(F)c2)CC1 [P102]	< 0.05 µM	< 1 µM
CNCCN(C)Cc1ccc2nn(C)cc2c1C1CCc2cc(F)c(F)cc2CC1 [P104]	< 0.05 µM	< 1 µM
CNCCN(C)Cc1ccc(C(C)N)cc1C1CCN(c2cccc(C)c2)CC1 (centres unmarked) [P105]	< 0.05 µM	< 1 µM
CNCCN(C)Cc1ncccc1C1CCN(c2ccccc2)CC1 [P108]	< 0.05 µM	< 1 µM
CNCCN(C)Cc1nc(C)ccc1N1CCc2ccccc2CC1 [P109]	< 0.05 µM	< 1 µM
CNCCN(C)Cc1ccc(C)nc1N1CCc2ccccc2CC1 [P110, N1-((2-(4,5-dihydro-1H-benzo[d]azepin-3(2H)-yl)-6-methylpyridin-3-yl)methyl)-N1,N2-dimethylethane-1,2-diamine]	< 0.05 µM	< 1 µM
CCOCC1(COCC)CC=C(c2c(C)cccc2CN(C)CCNC)CC1 [P111]	< 0.05 µM	< 1 µM
CNCCN(C)Cc1ncccc1C1CCN(CC(C)C)CC1 [P113]	< 0.05 µM	< 1 µM
CNCCN(C)Cc1ccc(C)nc1N1CCN(c2cccc(C)c2)CC1 [P116]	< 0.05 µM	1 to 5 µM
CCOCC1(COCC)CC=C(c2ccccc2CN(C)CCNC)CC1 [P117]	< 0.05 µM	< 1 µM
CNCCN(C)Cc1ncccc1N1CC2CC(C1)c1ccccc12 [P119]	≥ 0.5 µM	1 to 5 µM
CNCCN(C)Cc1ncccc1C1CCN(CC(F)(F)F)CC1 [P120]	< 0.05 µM	1 to 5 µM
CCOCC1(COCC)CCN(c2c(Br)cccc2CN(C)CCNC)CC1 [P123]	< 0.05 µM	1 to 5 µM
CNCCN(C)Cc1ncccc1N1CCC(N2CCN(C(C)C)CC2)CC1 [P124]	≥ 0.5 µM	1 to 5 µM
CNCCN(C)Cc1ncccc1C1CCCCC1 [P125]	< 0.05 µM	< 1 µM
CNCCN(C)Cc1ncccc1N1CCC(N2CCCCC2)CC1 [P126]	< 0.05 µM	1 to 5 µM
CNCCN(C)Cc1ncccc1N1CCc2ccccc2C1 [P127]	< 0.05 µM	1 to 5 µM
CNCCN(C)Cc1ncccc1N1CCCc2ccccc21 [P128]	≥ 0.5 µM	≥ 5 µM
CNCCN(C)Cc1ccc(F)cc1C1CCc2nc3ccccc3nc2CC1 [P132]	< 0.05 µM	< 1 µM
CNCCN(C)Cc1ncccc1C1CCN(c2ccc(-c3ccncc3)cc2)CC1 [P133]	< 0.05 µM	< 1 µM
CCOCc1cccc(N2CCC(c3cccnc3CN(C)CCNC)CC2)c1 [P134]	< 0.05 µM	1 to 5 µM
CNCCN(C)Cc1ccc(-c2cn[nH]c2)cc1C1CCc2cc(F)c(F)cc2CC1 [P135]	< 0.05 µM	< 1 µM
CNCCN(C)Cc1ccc(CC(=O)NC)cc1C1CCN(c2cccc(C)c2)CC1 [P140]	< 0.05 µM	< 1 µM
CNCCN(C)Cc1ncccc1N1CCC(Oc2cc(C)ccc2Cl)CC1 [P144]	< 0.05 µM	< 1 µM
CNCCN(C)Cc1ncccc1N1CCCCCC1 [P145]	< 0.05 µM	1 to 5 µM
CNCCN(C)Cc1ccc2[nH]nc(C)c2c1C1CCc2cc(F)c(F)cc2CC1 [P146, N1-((4-(2,3-difluoro-6,7,8,9-tetrahydro-5H-benzo[7]cyclopenten-7-yl)-3-methyl-1H-indazol-5-yl)methyl)-N1,N2-dimethylethane-1,2-diamine]	< 0.05 µM	< 1 µM
CNCCN(C)Cc1ccc(F)cc1C1CCN(c2nc(C)cc(N3CCCC3)n2)CC1 [P151]	< 0.05 µM	1 to 5 µM

— patent US20240307409A1, “ARGININE METHYLTRANSFERASE INHIBITOR AND USE THEREOF” (Cytosinlab Therapeutics Co., Ltd., priority 2021, published 2024)
